± gives the uncertainty stated by the source.
Test: xn = mol fraction of the nth substance listed

O=C1CCCC1 + CCCCCCO
303.15 K, 101 kPa
Details | viscosity [mPa·s]
x1 = 0.0985 | 2.896 ± 0.026
x1 = 0.2605 | 2.093 ± 0.019
x1 = 0.4224 | 1.641 ± 0.015
x1 = 0.5807 | 1.333 ± 0.012
x1 = 0.7406 | 1.132 ± 0.01
x1 = 0.9025 | 1.016 ± 0.009

ClC=C(Cl)Cl + COc1ccccc1
303.15 K, 101.3 kPa
Details | viscosity [mPa·s]
x2 = 0.1234 | 0.523 ± 0.009
x2 = 0.1791 | 0.541 ± 0.009
x2 = 0.2335 | 0.561 ± 0.009
x2 = 0.2818 | 0.577 ± 0.01
x2 = 0.4018 | 0.623 ± 0.01
x2 = 0.5204 | 0.672 ± 0.011
x2 = 0.5501 | 0.682 ± 0.011
x2 = 0.648 | 0.73 ± 0.012
x2 = 0.7243 | 0.765 ± 0.012
x2 = 0.8135 | 0.814 ± 0.013

NC1CCCCC1 + CCCCO
viscosity [mPa·s], 101 kPa
Details | 293.15 K | 298.15 K | 303.15 K
x1 = 0.0515 | 2.935 ± 0.061 | 2.587 ± 0.054 | 2.27 ± 0.047
x1 = 0.0767 | – | 2.558 ± 0.029 | –
x1 = 0.1008 | 2.906 ± 0.06 | 2.563 ± 0.053 | 2.26 ± 0.047
x1 = 0.147 | 2.891 ± 0.06 | 2.549 ± 0.053 | 2.24 ± 0.046
x1 = 0.1574 | – | 2.555 ± 0.029 | –
x1 = 0.2004 | 2.886 ± 0.06 | 2.545 ± 0.053 | 2.236 ± 0.046
x1 = 0.2426 | – | 2.564 ± 0.029 | –
x1 = 0.2992 | 2.897 ± 0.06 | 2.547 ± 0.053 | 2.233 ± 0.046
x1 = 0.3325 | – | 2.574 ± 0.03 | –
x1 = 0.4007 | 2.882 ± 0.06 | 2.533 ± 0.053 | 2.216 ± 0.046
x1 = 0.4277 | – | 2.549 ± 0.029 | –
x1 = 0.4475 | 2.868 ± 0.059 | 2.523 ± 0.052 | –
x1 = 0.4971 | 2.829 ± 0.059 | 2.48 ± 0.051 | 2.172 ± 0.045
x1 = 0.5285 | – | 2.481 ± 0.029 | –
x1 = 0.5421 | 2.784 ± 0.058 | 2.442 ± 0.051 | 2.142 ± 0.044
x1 = 0.6078 | 2.701 ± 0.056 | 2.387 ± 0.05 | 2.095 ± 0.044
x1 = 0.6355 | – | 2.379 ± 0.028 | –
x1 = 0.7051 | 2.558 ± 0.053 | 2.259 ± 0.047 | 1.991 ± 0.042
x1 = 0.7493 | – | 2.248 ± 0.026 | –
x1 = 0.7941 | 2.419 ± 0.05 | 2.142 ± 0.045 | 1.893 ± 0.04
x1 = 0.846 | 2.344 ± 0.049 | 2.08 ± 0.043 | 1.842 ± 0.038
x1 = 0.8706 | – | 2.062 ± 0.024 | –
x1 = 0.8879 | 2.295 ± 0.048 | 2.039 ± 0.043 | 1.81 ± 0.038
x1 = 0.9384 | 2.216 ± 0.046 | 1.973 ± 0.041 | 1.751 ± 0.037

ClC=C(Cl)Cl + CC(C)(C)O
303.15 K, 101.3 kPa
Details | viscosity [mPa·s]
x1 = 0.1042 | 1.951 ± 0.025
x1 = 0.2103 | 1.329 ± 0.017
x1 = 0.3164 | 1.018 ± 0.014
x1 = 0.4143 | 0.856 ± 0.012
x1 = 0.5147 | 0.758 ± 0.01
x1 = 0.6204 | 0.689 ± 0.01
x1 = 0.7102 | 0.648 ± 0.009
x1 = 0.8036 | 0.608 ± 0.009
x1 = 0.9088 | 0.562 ± 0.008

ClC=C(Cl)Cl + CCO
viscosity [mPa·s], 101.33 kPa
Details | x2 = 0.15 | x2 = 0.3 | x2 = 0.45 | x2 = 0.6 | x2 = 0.75 | x2 = 0.9
293.15 K | 0.6368 ± 0.012 | 0.7027 ± 0.013 | 0.7685 ± 0.014 | 0.8344 ± 0.015 | 0.9003 ± 0.016 | 0.9601 ± 0.017
303.15 K | 0.59 ± 0.011 | 0.6477 ± 0.012 | 0.7071 ± 0.013 | 0.765 ± 0.014 | 0.8177 ± 0.015 | 0.8581 ± 0.015
313.15 K | 0.521 ± 0.01 | 0.569 ± 0.011 | 0.6186 ± 0.012 | 0.6692 ± 0.012 | 0.7193 ± 0.013 | 0.7593 ± 0.014

[Al] + [Ga]
323 K, 101 kPa
Details | viscosity [mPa·s]
x1 = 0.021 | 1.529 ± 0.1
x1 = 0.1 | 1.638 ± 0.11

NC1CCCCC1 + CCCCOC(C)=O
298.15 K, 101 kPa
Details | viscosity [mPa·s]
x1 = 0.1151 | 0.6149 ± 0.0053
x1 = 0.2265 | 0.6836 ± 0.0058
x1 = 0.3342 | 0.8301 ± 0.0069
x1 = 0.4385 | 1.032 ± 0.0083
x1 = 0.5394 | 1.253 ± 0.0098
x1 = 0.6373 | 1.455 ± 0.011
x1 = 0.7321 | 1.618 ± 0.012
x1 = 0.8241 | 1.734 ± 0.013
x1 = 0.9134 | 1.779 ± 0.013

C1COCCN1 + OCCO
viscosity [mPa·s], 101 kPa
Details | 293.15 K | 303.15 K | 313.15 K | 323.15 K
x1 = 0.06476 | 23.01 ± 0.22 | – | – | –
x1 = 0.06828 | – | – | 9.851 ± 0.12 | –
x1 = 0.07 | 23.22 ± 0.22 | 15.77 ± 0.18 | 9.66 ± 0.12 | 7 ± 0.07
x1 = 0.2 | 24.69 ± 0.23 | 16.33 ± 0.19 | 10.32 ± 0.12 | 7.69 ± 0.08
x1 = 0.2273 | 24.37 ± 0.22 | – | – | –
x1 = 0.2296 | – | – | 10.49 ± 0.12 | –
x1 = 0.4 | 21.35 ± 0.19 | 14.19 ± 0.16 | 9.34 ± 0.1 | 7.13 ± 0.07
x1 = 0.4103 | 20.98 ± 0.19 | – | – | –
x1 = 0.4144 | – | – | 9.259 ± 0.11 | –
x1 = 0.6 | 11.83 ± 0.13 | 8.07 ± 0.09 | 6.02 ± 0.06 | 4.41 ± 0.05
x1 = 0.6173 | – | – | 6.339 ± 0.077 | –
x1 = 0.6201 | 11.78 ± 0.11 | – | – | –
x1 = 0.8601 | 4.454 ± 0.043 | – | – | –
x1 = 0.8629 | – | – | 2.391 ± 0.029 | –
x1 = 0.9 | 3.94 ± 0.05 | 2.92 ± 0.03 | 2.24 ± 0.02 | 1.72 ± 0.02

NC1CCCCC1 + CCC(C)O
298.15 K, 101 kPa
Details | viscosity [mPa·s]
x1 = 0.0767 | 2.804 ± 0.032
x1 = 0.1574 | 2.619 ± 0.03
x1 = 0.2426 | 2.472 ± 0.029
x1 = 0.3325 | 2.369 ± 0.027
x1 = 0.4277 | 2.302 ± 0.027
x1 = 0.5285 | 2.25 ± 0.026
x1 = 0.6355 | 2.224 ± 0.026
x1 = 0.7493 | 2.148 ± 0.025
x1 = 0.8706 | 2.002 ± 0.023

O=C1CCCC1 + CCOC(=O)OCC
viscosity [mPa·s], 101 kPa
Details | x2 = 0.0876 | x2 = 0.1356 | x2 = 0.2458 | x2 = 0.3359 | x2 = 0.4228 | x2 = 0.5415 | x2 = 0.6475 | x2 = 0.7513 | x2 = 0.8664 | x2 = 0.9352
303.15 K | 0.958 ± 0.026 | 0.937 ± 0.025 | 0.891 ± 0.024 | 0.859 ± 0.023 | 0.83 ± 0.023 | 0.797 ± 0.022 | 0.77 ± 0.021 | 0.747 ± 0.021 | 0.725 ± 0.02 | 0.713 ± 0.02
308.15 K | 0.893 ± 0.024 | 0.873 ± 0.024 | 0.833 ± 0.023 | 0.803 ± 0.022 | 0.776 ± 0.021 | 0.745 ± 0.02 | 0.722 ± 0.02 | 0.701 ± 0.019 | 0.681 ± 0.019 | 0.668 ± 0.019
313.15 K | 0.835 ± 0.023 | 0.819 ± 0.022 | 0.783 ± 0.021 | 0.757 ± 0.021 | 0.733 ± 0.02 | 0.705 ± 0.02 | 0.683 ± 0.019 | 0.664 ± 0.019 | 0.644 ± 0.018 | 0.632 ± 0.018

O=C(CO)[C@@H](O)[C@H](O)[C@H](O)CO + CS(C)=O
viscosity [mPa·s], 101 kPa
Details | x1 = 0.04904 | x1 = 0.07411 | x1 = 0.106 | x1 = 0.1269 | x1 = 0.151 | x1 = 0.1722 | x1 = 0.1979 | x1 = 0.2243
298.15 K | 3.98 ± 0.2 | 6.037 ± 0.2 | 10.34 ± 0.21 | 14.99 ± 0.21 | 23.48 ± 0.24 | 35.39 ± 0.3 | 59.46 ± 0.44 | 104.7 ± 1.4
308.15 K | 3.096 ± 0.2 | 4.529 ± 0.2 | 7.33 ± 0.2 | 10.21 ± 0.21 | 15.13 ± 0.22 | 21.64 ± 0.24 | 34.14 ± 0.3 | 55.88 ± 0.42
318.15 K | 2.48 ± 0.2 | 3.507 ± 0.2 | 5.442 ± 0.2 | 7.283 ± 0.2 | 10.35 ± 0.21 | 14.17 ± 0.22 | 21.19 ± 0.24 | 32.62 ± 0.3

ClC=C(Cl)Cl + ClC(Cl)(Cl)Cl
303.15 K, 101.33 kPa
Details | viscosity [mPa·s]
x1 = 0.2969 | 0.699 ± 0.1
x1 = 0.7481 | 0.555 ± 0.1
x1 = 0.7605 | 0.551 ± 0.1
x1 = 0.8498 | 0.539 ± 0.1
x1 = 0.9286 | 0.526 ± 0.1

Cc1ccccn1 + Brc1ccccc1
viscosity [mPa·s], 101 kPa
Details | x1 = 0.2 | x1 = 0.4 | x1 = 0.6 | x1 = 0.8
293.15 K | 1.072 ± 0.018 | 1.016 ± 0.017 | 0.954 ± 0.016 | 0.885 ± 0.015
313.15 K | 0.833 ± 0.014 | 0.785 ± 0.014 | 0.736 ± 0.013 | 0.684 ± 0.012
